Molecular target: T1, human F508del CFTR (Homo sapiens, UniProt P13569, DEL508-508)
T1 construct: expressed in transfected cells
Test: CFTR-YFP Assay, CFTR Corrector Protocol (YFP flux assay)
Assay type: cell-based
Conditions: for Emax: normalized to the positive control, read-out: EMAX (% Efficacy, EMAX normalized to the positive control)

T1 sequence (P13569 with tags, fused parts or gaps DEL508-508): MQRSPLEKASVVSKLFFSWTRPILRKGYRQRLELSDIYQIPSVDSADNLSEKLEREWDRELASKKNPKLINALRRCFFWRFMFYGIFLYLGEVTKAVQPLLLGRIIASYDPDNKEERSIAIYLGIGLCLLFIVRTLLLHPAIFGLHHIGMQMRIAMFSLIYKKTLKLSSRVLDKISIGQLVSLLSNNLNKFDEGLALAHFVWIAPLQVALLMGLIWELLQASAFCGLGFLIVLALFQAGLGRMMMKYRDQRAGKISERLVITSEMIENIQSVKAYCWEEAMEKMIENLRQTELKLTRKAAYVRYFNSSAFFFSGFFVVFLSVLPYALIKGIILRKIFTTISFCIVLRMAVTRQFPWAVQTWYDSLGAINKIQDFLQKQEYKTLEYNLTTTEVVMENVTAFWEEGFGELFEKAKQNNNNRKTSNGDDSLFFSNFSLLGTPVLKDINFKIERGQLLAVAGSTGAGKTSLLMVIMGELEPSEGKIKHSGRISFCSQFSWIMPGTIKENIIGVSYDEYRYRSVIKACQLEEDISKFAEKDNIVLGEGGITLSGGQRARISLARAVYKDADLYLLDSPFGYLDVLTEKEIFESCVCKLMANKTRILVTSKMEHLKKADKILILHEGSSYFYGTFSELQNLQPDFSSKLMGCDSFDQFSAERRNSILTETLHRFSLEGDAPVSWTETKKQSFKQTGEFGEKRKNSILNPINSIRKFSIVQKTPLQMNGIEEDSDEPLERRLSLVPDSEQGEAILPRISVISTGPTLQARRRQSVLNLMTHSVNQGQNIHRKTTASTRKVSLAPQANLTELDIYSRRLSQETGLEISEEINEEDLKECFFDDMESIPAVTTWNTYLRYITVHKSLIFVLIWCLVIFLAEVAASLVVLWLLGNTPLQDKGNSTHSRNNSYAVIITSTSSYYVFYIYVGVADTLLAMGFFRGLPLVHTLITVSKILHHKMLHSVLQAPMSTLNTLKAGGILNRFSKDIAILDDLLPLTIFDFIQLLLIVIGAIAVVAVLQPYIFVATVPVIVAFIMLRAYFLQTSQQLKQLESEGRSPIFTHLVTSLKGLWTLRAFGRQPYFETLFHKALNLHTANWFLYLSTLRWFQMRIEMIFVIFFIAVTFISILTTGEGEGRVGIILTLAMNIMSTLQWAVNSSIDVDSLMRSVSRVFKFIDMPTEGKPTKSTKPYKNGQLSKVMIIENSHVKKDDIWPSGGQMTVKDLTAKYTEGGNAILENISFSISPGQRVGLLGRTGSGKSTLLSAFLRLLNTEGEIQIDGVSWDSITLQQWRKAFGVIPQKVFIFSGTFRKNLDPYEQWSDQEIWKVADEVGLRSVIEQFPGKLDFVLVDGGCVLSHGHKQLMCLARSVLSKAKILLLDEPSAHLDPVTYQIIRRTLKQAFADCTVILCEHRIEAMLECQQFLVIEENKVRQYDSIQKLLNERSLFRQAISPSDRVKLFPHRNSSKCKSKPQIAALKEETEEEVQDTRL

EC50 [µM] | Emax [%] | SMILES
< 10 | > 80 | O=S(=O)(c1ccc2c(c1)OC(F)(F)O2)N1CCC(n2c(-c3ccncc3Cl)nc3cccnc32)CC1 [Example 38]
< 10 | 30 to 80 | O=S(=O)(c1ccc2c(c1)OC(F)(F)O2)N1CCC(n2c(-c3ccccc3Cl)nc3cccnc32)CC1 [Example 39]
< 10 | 30 to 80 | O=S(=O)(c1ccc2c(c1)OC(F)(F)O2)N1CCC(n2c(-c3ccncc3Cl)nc3ncccc32)CC1 [Example 40]
< 10 | 30 to 80 | CCc1ccc(S(=O)(=O)N2CCC(n3c(-c4ccncc4Cl)nc4cccnc43)CC2)cc1 [Example 41]
< 10 | 30 to 80 | CCc1ccc(S(=O)(=O)N2CCC(n3c(-c4ccncc4Cl)nc4ccc(OC)nc43)CC2)cc1 [Example 42]
< 10 | 30 to 80 | Cc1ccc2nc(-c3ccc(F)cc3F)n(C3CCN(S(=O)(=O)c4ccc5c(c4)OC(F)(F)O5)CC3)c2n1 [Example 43]
< 10 | 30 to 80 | [2H]C1([2H])Oc2ccc(S(=O)(=O)N3CCC(n4c(-c5ccncc5Cl)nc5cccnc54)CC3)cc2O1 [Example 44]
< 10 | 30 to 80 | CCc1ccc(S(=O)(=O)N2CCC(n3c(-c4cccnc4Cl)nc4cccnc43)CC2)cc1 [Example 45]
< 10 | 30 to 80 | O=S(=O)(c1ccc(OC(F)F)cc1)N1CCC(n2c(-c3ccccc3Cl)nc3cccnc32)CC1 [Example 46]
< 10 | 30 to 80 | CCc1ccc(S(=O)(=O)N2CCC(n3c(-c4ccc(F)cc4F)nc4cccnc43)CC2)cc1 [Example 47]
< 10 | 30 to 80 | O=S(=O)(c1ccc2c(c1)OC(F)(F)O2)N1CCC(n2c(-c3ccccc3)nc3cccnc32)CC1 [Example 48]
< 10 | 30 to 80 | COc1ccc(S(=O)(=O)N2CCC(n3c(-c4ccccc4C(F)(F)F)nc4cccnc43)CC2)cc1Cl [Example 49]
< 10 | 30 to 80 | COc1ccc(S(=O)(=O)N2CCC(n3c(-c4ccccc4C#N)nc4cccnc43)CC2)cc1Cl [Example 50]
< 10 | 30 to 80 | O=S(=O)(c1ccc2c(c1)CCC2)N1CCC(n2c(-c3ccncc3F)nc3cccnc32)CC1 [Example 51]
< 10 | 30 to 80 | O=S(=O)(c1ccc2c(c1)OC(F)(F)O2)N1CCC(n2c(-c3ccncc3F)nc3cccnc32)CC1 [Example 52]
< 10 | 30 to 80 | COc1ccc(S(=O)(=O)N2CCC(n3c(-c4ccc(F)cc4F)nc4cccnc43)CC2)cc1Cl [Example 53]
< 10 | 30 to 80 | Cc1ccc2nc(-c3ncccc3Cl)n(C3CCN(S(=O)(=O)c4ccc5c(c4)OC(F)(F)O5)CC3)c2n1 [Example 54]
< 10 | 30 to 80 | COc1ccc(S(=O)(=O)N2CCC(n3c(-c4ccccc4OC)nc4cccnc43)CC2)cc1Cl [Example 55]
< 10 | 30 to 80 | O=S(=O)(c1ccc(OC(F)F)cc1)N1CCC(n2c(-c3ccncc3Cl)nc3cccnc32)CC1 [Example 56]
< 10 | 30 to 80 | COc1ccc(S(=O)(=O)N2CCC(n3c(-c4ccc5c(c4)OCO5)nc4cccnc43)CC2)cc1Cl [Example 57]

EC50 [µM] | Emax [%] | SMILES
< 10 | 10 to 30 | COc1ccc2nc(-c3ccncc3Cl)n(C3CCN(S(=O)(=O)c4ccc(OC)c(Cl)c4)CC3)c2n1 [Example 58]
< 10 | 30 to 80 | Cc1ccc(S(=O)(=O)N2CCC(n3c(-c4ccccc4Cl)nc4cccnc43)CC2)cc1 [Example 59]
< 10 | 30 to 80 | COc1ccc(S(=O)(=O)N2CCC(n3c(-c4ccccc4Cl)nc4cccnc43)CC2)cc1F [Example 60]
< 10 | 30 to 80 | Cc1ccc(S(=O)(=O)N2CCC(n3c(-c4ccccc4)nc4ccc(C)nc43)CC2)cc1 [Example 61]
< 10 | 30 to 80 | Cc1ccc2nc(-c3ccccc3)n(C3CCN(S(=O)(=O)c4ccc5c(c4)OCO5)CC3)c2n1 [Example 62]
< 10 | 30 to 80 | Cc1ccc2nc(-c3ccccc3)n(C3CCN(S(=O)(=O)c4ccc(C)c(Cl)c4)CC3)c2n1 [Example 63]
< 10 | 30 to 80 | Cc1ccc(S(=O)(=O)N2CCC(n3c(-c4ccccc4Cl)nc4ccc(C)nc43)CC2)cc1 [Example 65]
> 20 | 10 to 30 | O=S(=O)(N1CCOCC1)N1CCC(n2c(-c3ccccc3)nc3cccnc32)CC1 [Example 67]
< 10 | 10 to 30 | COc1cccc(S(=O)(=O)N2CCC(n3c(-c4ccccc4)nc4cccnc43)CC2)c1 [Example 68]
< 10 | 10 to 30 | CC(C)c1ccc(S(=O)(=O)N2CCC(n3c(-c4ccccc4)nc4cccnc43)CC2)cc1 [Example 69]
< 10 | 10 to 30 | N#Cc1ccc(S(=O)(=O)N2CCC(n3c(-c4ccccc4)nc4cccnc43)CC2)cc1Cl [Example 71]
< 10 | 10 to 30 | O=S(=O)(c1c[nH]cn1)N1CCC(n2c(-c3ccccc3)nc3cccnc32)CC1 [Example 72]
< 10 | 30 to 80 | COc1ccc(S(=O)(=O)N2CCC(n3c(-c4ccccc4)nc4cccnc43)CC2)cc1C [Example 73]
< 10 | 30 to 80 | COc1ccc(S(=O)(=O)N2CCC(n3c(-c4ccccc4)nc4cccnc43)CC2)cc1C(F)(F)F [Example 74]
10 to 20 | 30 to 80 | COc1ccc(S(=O)(=O)N2CCC(n3c(-c4ncc[nH]4)nc4cccnc43)CC2)cc1Cl [Example 75]
< 10 | 30 to 80 | COc1ccc(S(=O)(=O)N2CCC(n3c(-c4ccccc4OC(F)(F)F)nc4cccnc43)CC2)cc1Cl [Example 76]
< 10 | 30 to 80 | COc1ccc(S(=O)(=O)N2CCC(n3c(-c4ccc(F)cc4)nc4cccnc43)CC2)cc1Cl [Example 77]
< 10 | 10 to 30 | COc1ccc(S(=O)(=O)N2CCC(n3c(-c4ccc(C(F)(F)F)cc4)nc4cccnc43)CC2)cc1Cl [Example 78]
< 10 | 30 to 80 | COC(=O)c1ccccc1-c1nc2cccnc2n1C1CCN(S(=O)(=O)c2ccc(OC)c(Cl)c2)CC1 [Example 79]
< 10 | 30 to 80 | COc1ccc(S(=O)(=O)N2CCC(n3c(-c4ccccc4)nc4ccccc43)CC2)cc1Cl [Example 81]

EC50 [µM] | Emax [%] | SMILES
< 10 | 30 to 80 | O=S(=O)(c1ccc2c(c1)OC(F)(F)O2)N1CCC(n2c(-c3ccccc3)nc3ccccc32)CC1 [Example 82]
< 10 | 30 to 80 | Cc1ccc2nc(-c3ccccc3F)n(C3CCN(S(=O)(=O)c4ccc5c(c4)OC(F)(F)O5)CC3)c2n1 [Example 83]
< 10 | 30 to 80 | Cc1ccc2nc(-c3ccc(F)cc3)n(C3CCN(S(=O)(=O)c4ccc5c(c4)OC(F)(F)O5)CC3)c2n1 [Example 84]
> 20 | 10 to 30 | COc1ccc(S(=O)(=O)N2CCC(n3c(-c4ccccc4Cl)nc4ccc(C)nc43)CC2)cc1OC [Example 85]
< 10 | 30 to 80 | Cc1ccc2nc(-c3ccccc3Cl)n(C3CCN(S(=O)(=O)c4ccc5c(c4)OC(F)(F)O5)CC3)c2n1 [Example 86]
> 20 | 10 to 30 | Cc1ccc2nc(-c3ccc4c(c3)OC(F)(F)O4)n(C3CCN(S(=O)(=O)c4ccc5c(c4)OC(F)(F)O5)CC3)c2n1 [Example 87]
> 20 | 30 to 80 | COc1ccc(S(=O)(=O)N2CCC(n3c(-c4cccnc4Cl)nc4cccnc43)CC2)cc1Cl [Example 88]
10 to 20 | > 80 | COc1ccc(S(=O)(=O)N2CCC(n3c(-c4ccncc4Cl)nc4cccnc43)CC2)cc1Cl [Example 89]
10 to 20 | 30 to 80 | COc1ccc(S(=O)(=O)N2CCC(n3c(-c4ncccc4Cl)nc4cccnc43)CC2)cc1Cl [Example 90]
< 10 | 30 to 80 | CCc1ccc(S(=O)(=O)N2CCC(n3c(-c4ncccc4Cl)nc4cccnc43)CC2)cc1 [Example 91]
< 10 | 30 to 80 | O=S(=O)(c1ccc2c(c1)OCO2)N1CCC(n2c(-c3cccnc3Cl)nc3cccnc32)CC1 [Example 92]
< 10 | 30 to 80 | O=S(=O)(c1ccc2c(c1)OCO2)N1CCC(n2c(-c3ncccc3Cl)nc3cccnc32)CC1 [Example 93]
< 10 | 10 to 30 | O=S(=O)(c1cccc(OC(F)F)c1)N1CCC(n2c(-c3ccncc3Cl)nc3cccnc32)CC1 [Example 94]
10 to 20 | 10 to 30 | Cc1ccc(S(=O)(=O)N2CCC(n3c(-c4ccncc4Cl)nc4cccnc43)CC2)cc1C#N [Example 95]
< 10 | 30 to 80 | Cc1ccc(S(=O)(=O)N2CCC(n3c(-c4ccccc4Cl)nc4cccnc43)CC2)cc1C#N [Example 96]
< 10 | 30 to 80 | Cc1ccc2nc(-c3ccccc3)n(C3CCN(S(=O)(=O)c4ccc5c(c4)OC(F)(F)O5)CC3)c2n1 [Example 97]
< 10 | 10 to 30 | COc1ccc(S(=O)(=O)N2CCC(n3c(-c4ccccc4)cc4cccnc43)CC2)cc1Cl [Example 98]
< 10 | 30 to 80 | O=S(=O)(c1ccc2c(c1)OC(F)(F)O2)N1CCC(n2c(-c3ccccc3)cc3cccnc32)CC1 [Example 99]
< 10 | 10 to 30 | O=S(=O)(c1ccc2c(c1)OCO2)N1CCC(n2c(-c3ccccc3C(F)(F)F)nc3cccnc32)CC1 [Example 100]
< 10 | 10 to 30 | Cc1ccc2nc(-c3cccnc3Cl)n(C3CCN(S(=O)(=O)c4ccc5c(c4)OCO5)CC3)c2n1 [Example 101]

SMILES | EC50 [µM] | Emax [%]
COc1ccc(S(=O)(=O)N2CCC(n3c(-c4ccccc4)nc4ccc(C)nc43)CC2)cc1F [Example 64] | < 10 | 30 to 80
CC(=O)Nc1ccc(S(=O)(=O)N2CCC(n3c(-c4ccccc4)nc4cccnc43)CC2)cc1Cl [Example 70] | < 10 | 10 to 30
COc1ccc(S(=O)(=O)N2CCC(n3c(-c4ccccc4OC(C)=O)nc4cccnc43)CC2)cc1Cl [Example 80] | < 10 | 30 to 80
